Measured values from article PMC3614091 (Organic & biomolecular chemistry, 2010).

Assays:
PICK1 PDZ domain [1] = target: T1, PICK1 PDZ domain (Rattus norvegicus, UniProt Q9EP80); assay type: binding; details: for affinity for PICK1 PDZ domain: at up to 500 µM concentrations (data not shown)
PDZ1 of PSD-95 [2] = target: T2, PDZ1 of PSD-95 (Homo sapiens, UniProt P78352); test: Fluorescence polarization assay, PSD-95 PDZ1; assay type: binding; details: tested at 500 µM (data not shown)
PDZ2 of PSD-95 [3] = target: T3, PDZ2 of PSD-95 (Homo sapiens, UniProt P78352); test: Fluorescence polarization assay, PSD-95 PDZ2; assay type: binding; details: tested at 500 µM (data not shown)
PDZ3 of PSD-95 [4] = target: T4, PDZ3 of PSD-95 (Homo sapiens, UniProt P78352); test: Fluorescence polarization assay, PSD-95 PDZ3; assay type: binding; details: tested at 500 µM (data not shown)
PDZ1 of PSD-95 [5] = target: T2, PDZ1 of PSD-95; details: PDZ domains from PSD-95; cited from earlier work
PDZ2 of PSD-95 [6] = target: T3, PDZ2 of PSD-95; details: PDZ domains from PSD-95; cited from earlier work
PDZ3 of PSD-95 [7] = target: T4, PDZ3 of PSD-95; details: PDZ domains from PSD-95; cited from earlier work
[8] = test system: PDZ4-5 of glutamate receptor interacting protein-1 (GRIP1); details: PDZ4-5 of GRIP1; cited from earlier work
PICK1 = details: biochemical studies; cited from earlier work
[9] = test system: AMPA receptor trafficking; details: cited from earlier work
hippocampal CA1 neurons = details: cited from earlier work
PICK1 PDZ domain [10] = target: T1, PICK1 PDZ domain; details: cited from earlier work

T1 sequence (Q9EP80 whole entry, the tested form may be a part): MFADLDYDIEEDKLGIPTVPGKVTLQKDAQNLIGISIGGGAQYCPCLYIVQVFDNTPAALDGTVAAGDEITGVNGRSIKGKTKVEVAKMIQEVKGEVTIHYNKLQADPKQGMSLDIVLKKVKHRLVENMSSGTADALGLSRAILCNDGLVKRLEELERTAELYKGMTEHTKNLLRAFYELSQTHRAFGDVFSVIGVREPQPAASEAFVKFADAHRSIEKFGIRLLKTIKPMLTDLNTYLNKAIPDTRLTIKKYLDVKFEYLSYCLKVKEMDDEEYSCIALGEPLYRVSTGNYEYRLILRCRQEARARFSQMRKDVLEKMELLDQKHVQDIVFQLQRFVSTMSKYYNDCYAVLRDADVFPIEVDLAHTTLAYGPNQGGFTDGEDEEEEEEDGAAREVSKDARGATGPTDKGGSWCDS

| Structure (SMILES) | affinity for PICK1 PDZ domain (PICK1 PDZ domain [1]) | affinity towards PDZ1 of PSD-95 (PDZ1 of PSD-95 [2]) | affinity towards PDZ2 of PSD-95 (PDZ2 of PSD-95 [3]) | affinity towards PDZ3 of PSD-95 (PDZ3 of PSD-95 [4]) | Ki (PICK1 PDZ domain [1]) [µM] | affinity for PDZ1 of PSD-95 (PDZ1 of PSD-95 [5]) | affinity for PDZ2 of PSD-95 (PDZ2 of PSD-95 [6]) | affinity for PDZ3 of PSD-95 (PDZ3 of PSD-95 [7]) | affinity for PDZ domains from GRIP1 [8] | reversibility of binding to PICK1 (PICK1) | effect on AMPA receptor trafficking [9] | effect on induction of LTD and LTP (hippocampal CA1 neurons) | binding to PICK1 PDZ domain in living cells (PICK1 PDZ domain [10]; intracellular FRET) | membrane permeability (PICK1 PDZ domain [10]; not told) |
| --- | --- | --- | --- | --- | --- | --- | --- | --- | --- | --- | --- | --- | --- | --- |
| CCOC(=O)NC/C(C#N)=C/c1ccc(Cl)c(Cl)c1 [Compound 14, (Z)-ethyl 2-cyano-3-(3,4-dichlorophenyl)allylcarbamate] | devoid of affinity | none of the compounds showed affinity | none of the compounds showed affinity | none of the compounds showed affinity |  |  |  |  |  |  |  |  |  |  |
| CCOC(=O)NC(=O)/C=C/c1ccc(Cl)c(Cl)c1 [Compound 5, (E)-ethyl 3-(3,4-dichlorophenyl)acryloylcarbamate] | devoid of affinity | none of the compounds showed affinity | none of the compounds showed affinity | none of the compounds showed affinity |  |  |  |  |  |  |  |  |  |  |
| CCOC(=O)NC(=O)/C(C#N)=C/c1ccc(Cl)c(Cl)c1 [Compound 1, (E)-ethyl 2-cyano-3-(3,4-dichlorophenyl)acryloylcarbamate] |  |  |  |  | 9.6 ± 0.22 | no affinity | no affinity | no affinity | no affinity | binds reversibly | affected AMPA receptor trafficking | inhibited induction of LTD and LTP | binds the PICK1 PDZ domain in living cells | membrane permeable |
| CCOC(=O)NC(=O)C(C#N)Cc1ccc(Cl)c(Cl)c1 (centres unmarked) [Compound 3, Ethyl 2-cyano-3-(3,4-dichlorophenyl)propanoylcarbamate] | devoid of affinity | none of the compounds showed affinity | none of the compounds showed affinity | none of the compounds showed affinity |  |  |  |  |  |  |  |  |  |  |
| CCCCNC(=O)/C(C#N)=C/c1ccc(Cl)c(Cl)c1 [Compound 8, (E)-N-butyl-2-cyano-3-(3,4-dichlorophenyl)acrylamide] | devoid of affinity | none of the compounds showed affinity | none of the compounds showed affinity | none of the compounds showed affinity |  |  |  |  |  |  |  |  |  |  |
